Tests used:
[1] = biological target: Sodium-dependent dopamine transporter (Homo sapiens, UniProt Q01959); assay: DRUGMATRIX: Dopamine Transporter radioligand binding (ligand: [125I] RTI-55); type: cell membranes, CHO-K1, Membrane; details: Not Active = under 50% inhibition at 10 µM; for Ki: read-out: Ki
[2] = biological target: T1, Amine oxidase [flavin-containing] A (Homo sapiens, UniProt P21397); assay: DRUGMATRIX: Monoamine Oxidase MAO-A enzyme inhibition (substrate: Kynuramine); parameters: species or system BTI-TN-5B1-4; details: Not Active = under 50% inhibition at 10 µM
T1 sequence (P21397 whole entry): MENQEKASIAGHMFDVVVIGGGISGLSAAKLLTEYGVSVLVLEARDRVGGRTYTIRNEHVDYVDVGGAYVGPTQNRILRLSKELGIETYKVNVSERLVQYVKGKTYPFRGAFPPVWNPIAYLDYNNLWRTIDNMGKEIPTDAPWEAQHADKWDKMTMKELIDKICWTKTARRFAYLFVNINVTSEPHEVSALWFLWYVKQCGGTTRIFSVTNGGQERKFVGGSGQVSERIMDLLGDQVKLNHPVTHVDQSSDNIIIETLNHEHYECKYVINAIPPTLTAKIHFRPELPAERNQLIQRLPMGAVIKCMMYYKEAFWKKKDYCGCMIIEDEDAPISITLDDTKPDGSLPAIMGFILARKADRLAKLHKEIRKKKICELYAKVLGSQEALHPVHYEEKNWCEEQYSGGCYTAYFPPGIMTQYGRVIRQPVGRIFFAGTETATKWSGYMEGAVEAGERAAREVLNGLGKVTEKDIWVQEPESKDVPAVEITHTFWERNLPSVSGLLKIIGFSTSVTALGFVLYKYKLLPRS

[3] = biological target: T2, Neuropeptide Y receptor type 1 (Homo sapiens, UniProt P25929); type: cell membranes, Membrane; details: sk-n-mc; note: in other assays of this panel Not Active means under 50% inhibition at 10 µM
T2 sequence (P25929 whole entry): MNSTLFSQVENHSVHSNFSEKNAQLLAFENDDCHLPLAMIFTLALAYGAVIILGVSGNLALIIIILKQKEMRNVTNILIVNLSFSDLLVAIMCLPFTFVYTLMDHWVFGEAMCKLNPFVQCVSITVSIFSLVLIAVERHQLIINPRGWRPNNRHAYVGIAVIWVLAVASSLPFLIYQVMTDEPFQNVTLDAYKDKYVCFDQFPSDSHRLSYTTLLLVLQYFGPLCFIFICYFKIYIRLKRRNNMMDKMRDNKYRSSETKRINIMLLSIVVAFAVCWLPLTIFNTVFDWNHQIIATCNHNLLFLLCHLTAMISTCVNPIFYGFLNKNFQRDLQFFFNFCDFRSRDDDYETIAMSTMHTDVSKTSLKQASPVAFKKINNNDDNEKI

[4] = biological target: T3, Alpha-1D adrenergic receptor (Homo sapiens, UniProt P25100); type: cell membranes, HEK293, Membrane; note: in other assays of this panel Not Active means under 50% inhibition at 10 µM
T3 sequence (P25100 whole entry): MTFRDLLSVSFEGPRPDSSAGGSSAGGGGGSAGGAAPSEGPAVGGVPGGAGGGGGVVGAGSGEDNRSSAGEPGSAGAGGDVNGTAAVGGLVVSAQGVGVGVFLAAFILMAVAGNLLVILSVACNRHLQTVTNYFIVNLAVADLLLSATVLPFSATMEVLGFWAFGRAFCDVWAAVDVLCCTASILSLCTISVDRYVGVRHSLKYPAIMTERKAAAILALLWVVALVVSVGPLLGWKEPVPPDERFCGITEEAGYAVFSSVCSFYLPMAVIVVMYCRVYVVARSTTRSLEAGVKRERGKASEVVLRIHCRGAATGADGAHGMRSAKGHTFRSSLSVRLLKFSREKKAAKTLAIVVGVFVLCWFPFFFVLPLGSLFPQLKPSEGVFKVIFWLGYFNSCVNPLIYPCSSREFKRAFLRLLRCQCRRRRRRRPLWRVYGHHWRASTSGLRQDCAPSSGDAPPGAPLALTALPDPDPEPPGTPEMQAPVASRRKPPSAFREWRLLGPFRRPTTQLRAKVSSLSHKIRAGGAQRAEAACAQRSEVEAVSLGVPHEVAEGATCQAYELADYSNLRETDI

[5] = biological target: T4, B2 bradykinin receptor (Homo sapiens, UniProt P30411); type: cell membranes, Membrane; details: chem-1; note: in other assays of this panel Not Active means under 50% inhibition at 10 µM
T4 sequence (P30411 whole entry): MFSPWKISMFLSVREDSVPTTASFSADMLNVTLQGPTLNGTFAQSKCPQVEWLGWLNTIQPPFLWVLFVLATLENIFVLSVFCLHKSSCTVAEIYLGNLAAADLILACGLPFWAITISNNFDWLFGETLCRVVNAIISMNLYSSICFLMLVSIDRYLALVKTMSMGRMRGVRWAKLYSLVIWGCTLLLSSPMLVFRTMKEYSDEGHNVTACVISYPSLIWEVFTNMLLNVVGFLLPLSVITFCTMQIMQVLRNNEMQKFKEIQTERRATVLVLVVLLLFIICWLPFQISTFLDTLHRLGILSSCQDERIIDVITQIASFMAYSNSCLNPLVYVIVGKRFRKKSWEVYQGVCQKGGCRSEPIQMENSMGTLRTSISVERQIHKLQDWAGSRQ

[6] = DRUGMATRIX: Phorbol Ester radioligand binding (ligand: [3H] PDBu); type: cell membranes, Mus musculus, ICR, Brain, Membrane; details: Not Active = under 50% inhibition at 10 µM

Sequence of Sodium-dependent dopamine transporter (Q01959 whole entry): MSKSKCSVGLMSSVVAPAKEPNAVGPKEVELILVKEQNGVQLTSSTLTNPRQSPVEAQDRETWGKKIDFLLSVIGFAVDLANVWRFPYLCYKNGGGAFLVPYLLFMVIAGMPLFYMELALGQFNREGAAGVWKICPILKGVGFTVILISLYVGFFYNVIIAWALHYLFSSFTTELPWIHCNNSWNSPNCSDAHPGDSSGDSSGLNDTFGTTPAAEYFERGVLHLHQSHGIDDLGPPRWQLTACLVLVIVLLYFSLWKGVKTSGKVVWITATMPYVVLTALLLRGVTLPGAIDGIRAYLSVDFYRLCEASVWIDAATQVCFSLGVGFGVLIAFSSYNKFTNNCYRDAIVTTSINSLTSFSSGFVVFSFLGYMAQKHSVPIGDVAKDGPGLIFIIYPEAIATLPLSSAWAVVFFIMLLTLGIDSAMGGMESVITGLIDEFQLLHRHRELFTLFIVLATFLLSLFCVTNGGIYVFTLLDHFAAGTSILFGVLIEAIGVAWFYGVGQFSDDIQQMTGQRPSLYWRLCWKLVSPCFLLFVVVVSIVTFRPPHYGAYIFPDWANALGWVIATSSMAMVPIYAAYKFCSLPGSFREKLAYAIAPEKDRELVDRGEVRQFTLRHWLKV

| Compound | IC50 ([1]; cho-k1) | IC50 ([2]; bti-tn-5b1-4) | IC50 [3] | IC50 ([4]; hek293) | IC50 [5] | IC50 [6] | Ki [6] | IC50 ([1]; read-out: IC50) [nM] | Ki [1] [nM] | IC50 ([2]; read-out: IC50) [nM] | IC50 ([4]; read-out: IC50) [nM] | Ki ([4]; read-out: Ki) [nM] |
| --- | --- | --- | --- | --- | --- | --- | --- | --- | --- | --- | --- | --- |
| CCOc1nc2cccc(C(=O)O)c2n1Cc1ccc(-c2ccccc2-c2nnn[nH]2)cc1 | Not Active | Not Active | Not Active | Not Active | Not Active | Not Active | Not Active | – | – | – | – | – |
| O=C(O)CCCc1cccs1 | Not Active | Not Active | Not Active | Not Active | Not Active | Not Active | Not Active | – | – | – | – | – |
| COc1ccccc1N | Not Active | Not Active | Not Active | Not Active | Not Active | Not Active | Not Active | – | – | – | – | – |
| O=C(c1ccccc1F)N1CCC(Cc2ccccc2)CC1 | Not Active | Not Active | Not Active | Not Active | Not Active | Not Active | Not Active | – | – | – | – | – |
| Cc1c(O)cccc1C(=O)N[C@@H](CSc1ccccc1)[C@H](O)CN1C[C@H]2CCCC[C@H]2C[C@H]1C(=O)NC(C)(C)C | – | Not Active | Not Active | Not Active | Not Active | Not Active | Not Active | 15500 | 12300 | – | – | – |
| CC(O)COC[C@H]1O[C@@H]2O[C@H]3[C@H](O)[C@@H](O)[C@@H](O[C@H]4[C@H](O)[C@@H](O)[C@@H](O[C@H]5[C@H](O)[C@@H](O)[C@@H](O[C@H]6[C@H](O)[C@@H](O)[C@@H](O[C@H]7[C@H](O)[C@@H](O)[C@@H](O[C@H]8[C@H](O)[C@@H](O)[C@@H](O[C@H]1[C@H](O)[C@H]2O)O[C@@H]8COCC(C)O)O[C@@H]7COCC(C)O)O[C@@H]6COCC(C)O)O[C@@H]5COCC(C)O)O[C@@H]4COCC(C)O)O[C@@H]3COCC(C)O (stereo partly drawn) [2-HYDROXYPROPYL-BETA-CYCLODEXTRIN] | – | – | Not Active | Not Active | Not Active | Not Active | Not Active | 1690 | 1340 | 167 | – | – |
| NC(=O)c1cccc(N)c1 [3-AMINOBENZAMIDE] | Not Active | Not Active | Not Active | Not Active | Not Active | Not Active | Not Active | – | – | – | – | – |
| C[C@H]1O[C@H](O[C@H]2[C@H](O)[C@@H](O)[C@@H](O[C@H]3[C@H](O)[C@@H](O)C(O)O[C@@H]3CO)O[C@@H]2CO)[C@H](O)[C@@H](O)[C@@H]1N[C@H]1C=C(CO)[C@@H](O)[C@H](O)[C@H]1O (some centres not stated) [ACARBOSE] | Not Active | Not Active | Not Active | Not Active | Not Active | Not Active | Not Active | – | – | – | – | – |
| CC[C@H]1[C@@H]2C[C@H]3[C@@H]4N(C)c5ccccc5[C@]45C[C@@H]([C@@H]2[C@H]5O)N3[C@@H]1O [AJMALINE] | Not Active | Not Active | Not Active | Not Active | Not Active | Not Active | Not Active | – | – | – | – | – |
| NC12CC3CC(CC(C3)C1)C2 [AMANTADINE] | Not Active | Not Active | Not Active | Not Active | Not Active | Not Active | Not Active | – | – | – | – | – |
| NCCCNCCSP(=O)(O)O [AMIFOSTINE] | Not Active | Not Active | Not Active | Not Active | Not Active | Not Active | Not Active | – | – | – | – | – |
| CN(C)CCC=C1c2ccccc2CCc2ccccc21 [AMITRIPTYLINE] | Not Active | Not Active | Not Active | – | Not Active | Not Active | Not Active | – | – | – | 105 | 52 |
